Usually Ki stands for a dissociation constant, usually derived from enzyme kinetics or from competition with a known ligand. For orientation: IC50 means the concentration that inhibits the measured activity by half. A high value points to weaker potency in that assay.

In one data set the target is T1, Caspase-1 (Homo sapiens, UniProt P29466).
T1 sequence (P29466 120-297 limits assumed): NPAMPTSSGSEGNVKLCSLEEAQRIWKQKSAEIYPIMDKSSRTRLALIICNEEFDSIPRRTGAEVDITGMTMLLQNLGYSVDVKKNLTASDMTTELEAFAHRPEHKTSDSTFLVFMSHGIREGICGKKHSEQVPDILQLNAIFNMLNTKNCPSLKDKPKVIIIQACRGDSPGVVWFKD
T1 sequence (P29466 317-404 limits assumed): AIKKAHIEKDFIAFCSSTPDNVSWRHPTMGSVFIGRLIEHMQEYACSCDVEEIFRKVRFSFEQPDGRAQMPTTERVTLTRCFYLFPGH
The data set is described as follows: Caspase-1 enzyme inhibition (Ki). The class given is biochemical. The note with it: substrate Suc-YVAD-pNA 80 μM, 37° C., pH 7.5. The procedure, abridged: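 Ki obtained by fitting rate versus inhibitor concentration to the Morrison tight-binding equation for competitive inhibitors, with pNA release read at 405 nm at 37 °C. Substrate Suc-YVAD-pNA (80 μM final) added after 15 min enzyme–inhibitor preincubation in Tris pH 7.5 buffer with DTT and CHAPS.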

A short description of data set [1]: Single pass perfusion in rat: GI wall and liver metabolism, biliary excretion. Type of data set: in vitro ADME. The note with it: for f (g) Xf (h): GI wall metabolism f(g) x liver metabolism f(h). On the procedure:
Single pass perfusion studies in rat were performed to assess gastrointestinal (GI) wall metabolism (f(g)), liver metabolism (f(h)), and biliary excretion. The method used has been described in Pang, C. S., J. Pharmacol. Exp. Therapeutics, 333, pp. 788-798 (1984).

The test system of data set [2] is Human whole blood, IL-1β production. Nature of the data set: Whole blood assay for IL-1β production. Type of data set: cell-based. Conditions: LPS-stimulated whole blood, IL-1β by ELISA. A digest of the protocol: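 LPS-stimulated (5.0 ng/ml final) human whole blood incubated with test compound in saline (or plasma/PBS-5% DMSO for hydrophobic compounds) at 30° C for 16-18 hr. Plasma IL-1β then measured by ELISA at 1:200 dilution, against no-LPS, no-inhibitor and vehicle controls.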
A general note: An ELISA detects its analyte on a solid surface through an enzyme-linked reagent.

Data set [3] relates to Human Peripheral Blood Mononuclear Cells (PBMC), mature IL-1β. The data set is described as follows: PBMC cell assay: IL-1β assay with human peripheral blood mononuclear cells. Conditions: LPS-stimulated human PBMC, mature IL-1β in supernatant by ELISA. Type of data set: cell-based. The procedure, abridged:
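Donor PBMC (suspension at 6×10^6 cells/ml) or adherent-enriched monocytes were stimulated with 5 ng/ml LPS (final) alongside 5–6 compound dilutions bracketing the ICE Ki, at 0.1% DMSO final, for 16–18 hr at 37° C, 5% CO2. Mature IL-1β in supernatants was measured by ELISA; IC50 was calculated relative to LPS-only controls.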

The target of another data set is T2, Caspase-3 (Homo sapiens, UniProt P42574).
T2 sequence (P42574 29-175 limits assumed): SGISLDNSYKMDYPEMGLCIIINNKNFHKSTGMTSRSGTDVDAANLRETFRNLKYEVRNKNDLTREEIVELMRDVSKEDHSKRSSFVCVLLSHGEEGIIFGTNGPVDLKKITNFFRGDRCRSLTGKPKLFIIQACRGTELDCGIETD
T2 sequence (P42574 176-277 limits assumed): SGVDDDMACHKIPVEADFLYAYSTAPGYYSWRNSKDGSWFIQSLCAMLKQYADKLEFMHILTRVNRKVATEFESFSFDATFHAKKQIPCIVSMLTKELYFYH
Nature of the data set: Caspase-3 enzyme inhibition (Ki). Conditions: substrate Ac-DEVD-pNA 60 μM, 8% glycerol in buffer, 37° C. The class given is biochemical. On the procedure:
Ki values for test compounds with the various caspases were obtained by the method of Margolin et al. (J. Biol. Chem., 272 pp. 7223-7228 (1997)). Assays were performed in 10 mM Tris (Sigma Corp, St Louis Mo.) pH 7.5, 1 mM Dithiothreitol (DTT, Research Organic INC, Cleveland, Ohio) and 0.1% CHAPS (Pierce, Rockford Ill.) at 37° C. For caspase-3, a solution of 8% glycerol was added to the assay buffer to improve enzyme stability. A 65 μL aliquot of the assay buffer and 5 μL aliquot of the appropriate dilutions of inhibitor in DMSO where pipetted into a 96 well plate, treated with 10 μL of caspase, then diluted in assay buffer (0.5-40 nM active protein by active site titration). A control containing DMSO but no compound was included for each determination. The plates were then incubated for 15 minutes at 37° C., before addition of the appropriate substrate (20 μL, final concentration 1-4×KM, final assay volume 100 μL) to initiate the reaction. Reaction rates were measured at 37° C. either by following the time dependant increase in absorbance at 405 nm (for the pNA substrates) or in fluorescence (Ex 390, Em 460) (for the AMC substrates). The rates obtained were plotted against inhibitor concentration and the data fit to the Morrison tight-binding equation for competitive inhibitors (Morrison, J. F., Biochem. Biophys. Acta, 185 pp. 269-286 (1969)). The substrates used for the individual assays were as follows:
Caspase-3 Ac-DEVD-pNA (Bachem, King of Prussia, Pa.) (final concentration in assay, 60 μM)

Each structure is given as a SMILES string. A value given as a limit tells only on which side of the number the result lay.

Turning to `COc1cc(N)c(Cl)cc1C(=O)N[C@@H](C)C(=O)N1CCC[C@H]1C(=O)N[C@H](C=O)CC(=O)O` [Example 7ac], at Caspase-1, the Ki was 0.01 to 1 µM. Also, in data set [1], the “Biliary Excretion” value was “C (Category “C” indicates >10%)” and the “f (g) Xf (h)” value was “C (Category “C” indicates 0.5-0.75)”. Further, the IC50 in data set [2] lay within 2.5 to 7.5 µM.
In the case of `C[C@H](NC(=O)c1ccc(N)c(Cl)c1)C(=O)N1CCCC[C@H]1C(=O)N[C@H](C=O)CC(=O)O` [Example 25d], the inhibition constant (Ki) at Caspase-1 is less than 0.01 µM. For the same compound, in data set [1], the “Biliary Excretion” value is “C (Category “C” indicates >10%)” and the “f (g) Xf (h)” value is “C (Category “C” indicates 0.5-0.75)”. In data set [2], the IC50 was less than 2.5 µM.
Taken in the same sequence, the figures for `CC(=O)Nc1ccc(C(=O)N[C@@H](C)C(=O)N2CCCC[C@H]2C(=O)N[C@H](C=O)CC(=O)O)cc1Cl` [Example 25e] were less than 0.01 µM, “B (Category “B” indicates 5-10%)”, “C (Category “C” indicates 0.5-0.75)” and greater than 7.5 µM.
On Caspase-1, `COc1cc(N)c(Cl)cc1C(=O)N[C@@H](C)C(=O)N1CC(F)(F)C[C@H]1C(=O)N[C@H](C=O)CC(=O)O` [Example 27b] displayed a Ki of 0.01 to 1 µM. In data set [1], the “Biliary Excretion” value was “A (category “A” indicates <5%)” and the “f (g) Xf (h)” value is reported as “B (Category “B” indicates 0.25-0.49)”. Also, in data set [2], the half-maximal inhibitory concentration (IC50) is less than 2.5 µM.
In turn, `CC(C)[C@H](NC(=O)c1nccc2ccccc12)C(=O)N[C@@H](C)C(=O)N[C@H](C=O)CC(=O)O` [Example 29b] gave a half-maximal inhibitory concentration (IC50) in data set [3] of 1 to 2 µM. The compound further had a Ki on Caspase-3 greater than 1 µM. Besides, the Ki at Caspase-1 was less than 0.01 µM. Besides, in data set [1], the “Biliary Excretion” value is reported as “B (Category “B” indicates 5-10%)” and the “f (g) Xf (h)” value is given as “A (category “A” indicates <0.25)”.
Turning to `COc1ccc(C(=O)N[C@H](C(=O)N[C@@H](C)C(=O)N[C@H](C=O)CC(=O)O)C(C)C)cc1` [Example 29n], the inhibitory constant (Ki) at Caspase-1 was in the range of 0.01 to 1 µM. In data set [1], the “Biliary Excretion” value was “A (category “A” indicates <5%)” and the “f (g) Xf (h)” value is “C (Category “C” indicates 0.5-0.75)”. This compound also came in with a concentration for half-maximal inhibition (IC50) in data set [2] of 2.5 to 7.5 µM.
As to `COc1c(C)cc(C(=O)N[C@@H](C)C(=O)N[C@@H](C)C(=O)N[C@H](C=O)CC(=O)O)cc1C` [Example 29o], the Ki at Caspase-1 is 0.01 to 1 µM. Also, in data set [1], the “Biliary Excretion” value was “A (category “A” indicates <5%)” and the “f (g) Xf (h)” value was “C (Category “C” indicates 0.5-0.75)”. For the same compound, the IC50 in data set [2] is less than 2.5 µM.
Consider `COc1c(C)cc(C(=O)N[C@H](C(=O)N[C@@H](C)C(=O)N[C@H](C=O)CC(=O)O)C(C)C)cc1C` [Example 29p], for which the inhibition constant (Ki) on Caspase-1 was less than 0.01 µM. Moreover, in data set [1], the “Biliary Excretion” value is listed as “C (Category “C” indicates >10%)” and the “f (g) Xf (h)” value was “B (Category “B” indicates 0.25-0.49)”. The 50% inhibitory concentration (IC50) in data set [2] is less than 2.5 µM.
On Caspase-1, `C[C@H](NC(=O)c1ccc(N)c(Cl)c1)C(=O)N[C@@H](C)C(=O)N[C@H](C=O)CC(=O)O` [Example 29q] yielded an inhibitory constant (Ki) of less than 0.01 µM. In data set [1], the “Biliary Excretion” value was “A (category “A” indicates <5%)” and the “f (g) Xf (h)” value is recorded as “C (Category “C” indicates 0.5-0.75)”. Further, the 50% inhibitory concentration (IC50) in data set [2] is less than 2.5 µM.
As to `CC(C)[C@H](NC(=O)c1ccc(N)c(Cl)c1)C(=O)N[C@@H](C)C(=O)N[C@H](C=O)CC(=O)O` [Example 29r], at Caspase-1, the Ki was less than 0.01 µM. For the same compound, in data set [1], the “Biliary Excretion” value is listed as “B (Category “B” indicates 5-10%)” and the “f (g) Xf (h)” value is “C (Category “C” indicates 0.5-0.75)”. This compound also gave a concentration for half-maximal inhibition (IC50) in data set [2] of less than 2.5 µM.
In the case of `CC(=O)NC(CC(=O)O)C(=O)NC1CCN(C(CC(C)C)C(=O)NC(C=O)CC(=O)O)C1=O` (centres unmarked) [Example 32d], the figures for the inhibition constant (Ki) at Caspase-3 and at Caspase-1 were 0.01 to 1 µM and greater than 1 µM, respectively.
Regarding `C[C@H](NC(=O)c1ccccn1)C(=O)N1CCC[C@H]1C(=O)N[C@H](C=O)CC(=O)O` [Example 122e], the values for the IC50 in data set [3] and in data set [2] were 1 to 2 µM and 2.5 to 7.5 µM, respectively. Further, the inhibitory constant (Ki) at Caspase-1 was in the range of 0.01 to 1 µM.
The matching figures for `C[C@H](NC(=O)c1cc(Cl)c(N)c(Cl)c1)C(=O)N1CCC[C@H]1C(=O)N[C@H](C=O)CC(=O)O` [Example 122g, 3-({1-[2-(4-Amino-3,5-dichloro-benzoylamino)-propionyl]-pyrrolidine-2-carbonyl}-amino)-4-oxo-butyric acid]: 0.5 to 1 µM, less than 2.5 µM and less than 0.01 µM.
Take `CC(C)Oc1cccc(C(=O)N[C@@H](C)C(=O)N2CCC[C@H]2C(=O)N[C@H](C=O)CC(=O)O)c1` [Example 122h, 3-({1-[2-(3-Isopropoxy-benzoylamino)-propionyl]-pyrrolidine-2-carbonyl}-amino)-4-oxo-butyric acid]: the 50% inhibitory concentration (IC50) was 1 to 2 µM in data set [3] and less than 2.5 µM in data set [2]. The Ki at Caspase-1 fell in the range of 0.01 to 1 µM.
`COc1ccc(C(=O)N[C@@H](C)C(=O)N2CCC[C@H]2C(=O)N[C@H](C=O)CC(=O)O)cc1OCc1ccccc1` [Example 122i, 3-({1-[2-(3-benzyloxy-4-methoxy-benzoylamino)-propionyl]-pyrrolidine-2-carbonyl}-amino)-4-oxo-butyric acid]: the results for the IC50 in data set [3] and in data set [2] were 1 to 2 µM and less than 2.5 µM, respectively. In addition, the Ki at Caspase-1 was less than 0.01 µM.
For the compound `C[C@H](NC(=O)c1cnc2ccccc2n1)C(=O)N1CCC[C@H]1C(=O)N[C@H](C=O)CC(=O)O` [Example 122j, 4-Oxo-3-[(1-{2-[(quinoxaline-2-carbonyl)-amino]-propionyl}-pyrrolidine-2-carbonyl) -amino]-butyric acid], the values for the IC50 in data set [3] and in data set [2] were greater than 2 µM and 2.5 to 7.5 µM, respectively. This compound gave a Ki at Caspase-1 of 0.01 to 1 µM.
Regarding `C[C@H](NC(=O)c1ccc(N)c(C(F)(F)F)c1)C(=O)N1CCC[C@H]1C(=O)N[C@H](C=O)CC(=O)O` [Example 122l, 3-({1-[2-(4-Amino-3-trifluoromethyl-benzoylamino)-propionyl]-pyrrolidine-2-carbonyl}-amino)-4-oxo-butyric acid], the IC50 in data set [3] was 0.5 to 1 µM; in data set [2], less than 2.5 µM. On Caspase-1, this compound gave an inhibition constant Ki of 0.01 to 1 µM.
In the case of `COc1cc(NC(C)=O)c(Cl)cc1C(=O)N[C@@H](C)C(=O)N1CCC[C@H]1C(=O)N[C@H](C=O)CC(=O)O` [Example 122r, 3-({1-[2-(4-Acetylamino-5-chloro-2-methoxy-benzoylamino)-propionyl]-pyrrolidine-2-carbonyl}-amino)-4-oxo-butyric acid], the Ki at Caspase-1 was in the range of 0.01 to 1 µM. In addition, in data set [1], the “Biliary Excretion” value is recorded as “A (category “A” indicates <5%)” and the “f (g) Xf (h)” value is recorded as “B (Category “B” indicates 0.25-0.49)”. In addition, the 50% inhibitory concentration (IC50) in data set [2] is 2.5 to 7.5 µM.

Source of the values: patent US20030232986A1, “Inhibitors of caspases” (Vertex Pharmaceuticals Incorporated, priority 1998, published 2003).
